From patent US8299083B2, “PDE5 inhibitor compositions and methods for treating cardiac indications” (The Johns Hopkins University, priority 2004, dated 2012)
Like-named read-outs stand apart in the source and are kept apart here.

Tests used:
[1] = test system: total cGMP-esterase activity; assay: cGMP-esterase (low Km cGMP phosphodiesterase) activity of heart and isolated myocytes; type: biochemical, mouse
GSK3β = GSK3β phosphorylation in TAC hearts (Western blot); type: in vivo, mouse
Description: Protein was prepared from snap-frozen heart tissue using extraction buffer as described previously^90. Antibodies included calcineurin (1:2000 dilution, BD Transduction Laboratories (San Diego, Calif.), GSK3β, Ser9-phospho-GSK313, Akt, Ser473-phospho-Akt, ERK, Thr202/Thr204-phospho-ERK (1:1000 dilution, Cell Signaling Technology, Beverly, Mass.). Primary antibody binding was visualized by horse radish peroxidase-conjugated secondary antibodies and enhanced chemiluminescence (Pierce, Rockford, Ill.).

[2] = test system: neonatal rat cardiac myocytes; assay: Phenylephrine-induced hypertrophy of neonatal rat cardiomyocytes (sarcomere organization, 3H-leucine incorporation); type: cell-based; details: phenylephrine 1 μM, sildenafil 100 nM or 1 μM
NFAT = NFAT promoter activation in neonatal rat myocytes (β-galactosidase / luciferase reporter); type: cell-based; details: stimulated by PE or BayK8644, 1 μM sildenafil
Description: Rat neonatal cardiac myocytes were isolated from 1- to 2-day-old Sprague-Dawley rats as described^50. […] Sigma Chemical (St. […] To assess NFAT activation, cells were transfected with adenovirus expressing the three NFAT-binding sites linked to β-galactosidase ([…]), using previously described methods^72. Additional studies were performed using an alternative reporter adenovirus encoding luciferase driven by the NFAT promoter. This was performed twenty-four hours prior to PE, BayK8644, or activated calcineurin stimulation. The latter was achieved by a co-transfection with a replication-deficient adenovirus encoding a Ca^2+-independent, constitutively active, truncated mouse calcineurin […]^72). […] After an additional forty-eight hours, NFAT activation was assessed by β-galactosidase histology/activity or luciferase activity. […] Luciferase activity was assayed by commercial kit (Stratagene, La Jolla, Calif.) and read on a plate luminometer.

cGMP = cGMP FRET imaging in neonatal rat myocytes; type: cell-based
Description: Ventricular myocytes from 1-2 days old Sprague Dawley rats (CharlesRiver Lab, MA) were prepared and transfected with the vector carrying the cGMP sensor cygnet-2.1^77 in which EYFP was substituted with the less pH sensitive variant citrine^89, and imaged eighteen-twenty-four hours after transfection as described^90. Images (50-80 ms exposure) were acquired every 10 seconds using custom software and processed by Imagej (NIH, MD). FRET was the change in 480 nm/545 nm emission intensities (ΔR) upon 430 nm excitation^91 expressed as percent change over the basal intensity (R0). Cells were bathed in HEPES buffered Ringer's modified saline (1 mmol/L CaCl2), at room temperature (20-22° C.).

MMP-2 and MMP-9 = assay: Cardiac gelatinase zymography; type: in vivo, mouse; details: 3W TAC, co-treatment
Description: In Vitro gelatin lysis by MMP-2 and MMP-9 was assessed by zymography. Briefly, modified Laemmli buffer without mercaptoethanol was added to lysed tissue samples and loaded on 10% gelatin (Invitrogen Corp., San Diego, Calif.). After electrophoresis, gels were washed twice with renaturing buffer at room temperature followed by developing buffer (Invitrogen Corp., San Diego, Calif.), then stained with a commercially available Coomassie stain to visualize lytic bands (SIMPLYBLUe, Invitrogen Corp., San Diego, Calif.).

RhoA, ROCK1 and ROCK2 = assay: RhoA and Rho kinase expression and activity in TAC hearts; type: in vivo, mouse; details: 3 weeks TAC
Description: RhoA activity assay was performed by immunoprecipitation using a commercially available immobilized antibody (SEIZE X IP, Pierce Biotechnology, IL). The antibody used was a rabbit polyclonal antibody raised against RboA (Upstate, NY [1:2500]) and subsequent commercial activity assay according to manufacturer's specification (Upstate Biotechnology, NY).
Protein lysates from whole myocardium and isolated cardiac myocytes were obtained using lysis buffer (Cell Signaling Technology, Beverly, Mass.) with mini-protease inhibitor (Roche, Ind.) and 5% Triton (Sigma Chemical (St. Louis, Mo.). Following 12,000 g centrifugation for 30 minutes, protein was quantified (Pierce Rockford, Ill.), NUPage LDS sample buffer added (Biorad, Hercules, Calif.), and lysates electrophoresed on NuPAGE 4-12% Bis-Tris polyacrylamide gels (Invitrogen, San Diego, Calif.). Membranes were incubated with rabbit polyclonal antibodies raised against ROCK1 or ROCK2 (Cell Signaling Technology, Beverly, Mass.) [1:3,000].

SMILES: CCCc1nn(C)c2c(=O)[nH]c(-c3cc(S(=O)(=O)N4CCN(C)CC4)ccc3OCC)nc12 [sildenafil]
- proportion of total cGMP-esterase activity attributable to PDE5 ([1]; 3 week TAC hearts): ~60%
- PDE5A-dependent cGMP-esterase activity by radio-enzyme assay ([1]; NTG, n=9): 32±17.3%
- percent of total cGMP-esterase activity blocked by co-incubation ([1]; sham control hearts (baseline)): approximately 30%
- GSK3β activation (GSK3β; 1-week TAC): remained unchanged
- Akt and GSK3β activation (GSK3β; 9-weeks TAC): reduced both
- PE-induced cellular hypertrophy (sarcomere organization, protein synthesis) [2]: suppressed
- NFAT promoter activation (NFAT): suppressed activation
- cGMP FRET signal (cGMP): enhanced the FRET signal
- cGMP FRET signal (cGMP; listed as SIL): raised cellular cGMP
- gelatinase activity (gel lysis) (MMP-2 and MMP-9): largely inhibited
- RhoA and Rho-kinase expression and activity (RhoA, ROCK1 and ROCK2): inhibits RhoA, Rho-Kinase1 (ROCK1) and Rho-Kinase2 protein expression and activity
